Results from ChEMBL document CHEMBL1150587, “Evaluation of the potential cancer chemotherapeutic efficacy of natural product isolates employing in vivo hollow fiber tests” (J Nat Prod, 2002).
Active and inactive are the calls of the source. The rule behind the calls is not given here.

Key:
[1] = test system: Mus musculus; test: Toxicity in human Lu1 cells implanted NCr nu/nu mouse at 516 umol/kg, ip administered from day 3 to 6 after implantation measured on day 7 by hollow-fiber test; assay type: organism-based; details: in vivo
[2] = test system: Lu1; test: Growth inhibition of human Lu1 cells implanted intraperitoneally to NCr nu/nu mouse at15.5 to 124 umol/kg, ip administered from day 3 to 6 after implantation measured on day 7 by MTT-based hollow-fiber test; assay type: functional
[3] = test system: KB; test: Cytotoxicity against human KB cells after 72 hrs by SRB assay; assay type: functional, cell-based
[4] = test system: LNCaP; test: Cytotoxicity against human LNCAP cells after 72 hrs by SRB assay; assay type: functional, cell-based
[5] = test system: Lu1; test: Cytotoxicity against human Lu1 cells after 72 hrs by SRB assay; assay type: functional, cell-based; details: Lu1, 72 h
[6] = test system: MCF7; test: Cytotoxicity against human MCF7 cells after 72 hrs by SRB assay; details: MCF7, 72 h
[7] = Cytotoxicity against human BC1 cells after 72 hrs by SRB assay; details: BC1, 72 h
[8] = test system: Lu1; test: Growth inhibition of human Lu1 cells implanted subcutaneously to NCr nu/nu mouse at15.5 to 124 umol/kg, ip administered from day 3 to 6 after implantation measured on day 7 by MTT-based hollow-fiber test; assay type: functional
[9] = Cytotoxicity against human KBV1 cells after 72 hrs by SRB assay; assay type: functional, cell-based; details: KB-V1, 72 h
[10] = test system: Mus musculus; test: Toxicity in human Lu1 cells implanted NCr nu/nu mouse assessed as body weight loss at 252 umol/kg, ip administered from day 3 to 6 after implantation measured on day 7 by hollow-fiber test; assay type: organism-based; details: in vivo
[11] = test system: SW626; test: Cytotoxicity against human SW626 cells after 72 hrs by SRB assay; assay type: functional, cell-based; details: SW626, 72 h
[12] = test system: SK-MEL-2; test: Cytotoxicity against human SK-MEL-2 cells after 72 hrs by SRB assay; assay type: functional, cell-based; details: SK-MEL-2, 72 h
[13] = test system: Mus musculus; test: Toxicity in NCr nu/nu mouse subcutaneously implanted with human Lu1 cells assessed as body weight change at 15.5 to 124 umol/kg, ip administered from day 3 to 6 after implantation measured on day 7; assay type: organism-based; details: in vivo
[14] = test system: Col2; test: Cytotoxicity against human Col2 cells after 72 hrs by SRB assay; assay type: functional, cell-based; details: Col2, 72 h
[15] = test system: P388; test: Cytotoxicity against mouse P388 cells after 72 hrs by SRB assay; assay type: functional, cell-based; details: P388, 72 h
[16] = test system: MCF7; test: Growth inhibition of human MCF7 cells implanted subcutaneously to NCr nu/nu mouse at 72.6 to 290.7 umol/kg, ip administered from day 3 to 6 after implantation measured on day 7 by MTT-based hollow-fiber test; assay type: functional
[17] = test system: KB; test: Growth inhibition of ip dosed subcutaneously implanted human KB cells to NCr nu/nu mouse administered from day 3 to 6 after implantation measured on day 7 by MTT-based hollow-fiber test; assay type: functional, organism-based
[18] = test system: SK-MEL-2; test: Growth inhibition of human SK-MEL-2 cells implanted intraperitoneally to NCr nu/nu mouse at 72.6 to 290.7 umol/kg, ip administered from day 3 to 6 after implantation measured on day 7 by MTT-based hollow-fiber test; assay type: functional
[19] = test system: LNCaP; test: Growth inhibition of human LNCAP cells implanted subcutaneously to NCr nu/nu mouse at 72.6 to 290.7 umol/kg, ip administered from day 3 to 6 after implantation measured on day 7 by MTT-based hollow-fiber test; assay type: functional
[20] = test system: Mus musculus; test: Toxicity in tumor cell implanted NCr nu/nu mouse assessed as body weight change at 145.3 umol/kg, ip administered from day 3 to 6 after implantation measured on day 7; assay type: organism-based; details: in vivo
[21] = test system: KB; test: Growth inhibition of ip dosed intraperitoneally implanted human KB cells to NCr nu/nu mouse administered from day 3 to 6 after implantation measured on day 7 by MTT-based hollow-fiber test; assay type: functional, organism-based
[22] = test system: Lu1; test: Growth inhibition of human Lu1 cells implanted intraperitoneally to NCr nu/nu mouse at 72.6 to 290.7 umol/kg, ip administered from day 3 to 6 after implantation measured on day 7 by MTT-based hollow-fiber test; assay type: functional
[23] = test system: Mus musculus; test: Toxicity in NCr nu/nu mouse subcutaneously implanted with human KB cells assessed as mortality at 145.3 umol/kg, ip administered on day 10, 13, 16, 20 of implantation; assay type: organism-based; details: in vivo
[24] = test system: Mus musculus; test: Toxicity in NCr nu/nu mouse subcutaneously implanted with human KB cells assessed as mortality at 72.6 umol/kg, ip administered on day 10, 13, 16, 20 of implantation; assay type: organism-based; details: in vivo
[25] = test system: Lu1; test: Growth inhibition of human Lu1 cells implanted subcutaneously to NCr nu/nu mouse at 72.6 to 290.7 umol/kg, ip administered from day 3 to 6 after implantation measured on day 7 by MTT-based hollow-fiber test; assay type: functional
[26] = test system: SK-MEL-2; test: Growth inhibition of human SK-MEL-2 cells implanted subcutaneously to NCr nu/nu mouse at 72.6 to 290.7 umol/kg, ip administered from day 3 to 6 after implantation measured on day 7 by MTT-based hollow-fiber test; assay type: functional
[27] = test system: SK-MEL-2; test: Growth inhibition of ip dosed subcutaneously implanted human SK-MEL-2 cells to NCr nu/nu mouse administered from day 3 to 6 after implantation measured on day 7 by MTT-based hollow-fiber test; assay type: functional, organism-based
[28] = test system: KB; test: Growth inhibition of human KB cells implanted subcutaneously to NCr nu/nu mouse at 72.6 to 290.7 umol/kg, ip administered from day 3 to 6 after implantation measured on day 7 by MTT-based hollow-fiber test; assay type: functional
[29] = test system: P388; test: Growth inhibition of mouse P388 cells implanted subcutaneously to NCr nu/nu mouse at 72.6 to 290.7 umol/kg, ip administered from day 3 to 6 after implantation measured on day 7 by MTT-based hollow-fiber test; assay type: functional
[30] = test system: SW626; test: Growth inhibition of human SW626 cells implanted subcutaneously to NCr nu/nu mouse at 72.6 to 290.7 umol/kg, ip administered from day 3 to 6 after implantation measured on day 7 by MTT-based hollow-fiber test; assay type: functional
[31] = test system: Mus musculus; test: Toxicity in tumor cell implanted NCr nu/nu mouse assessed as body weight change at 72.6 umol/kg, ip administered from day 3 to 6 after implantation measured on day 7; assay type: organism-based; details: in vivo
[32] = test system: SK-MEL-2; test: Growth inhibition of ip dosed intraperitoneally implanted human SK-MEL-2 cells to NCr nu/nu mouse administered from day 3 to 6 after implantation measured on day 7 by MTT-based hollow-fiber test; assay type: functional, organism-based
[33] = test system: P388; test: Growth inhibition of mouse P388 cells implanted intraperitoneally to NCr nu/nu mouse at 72.6 to 290.7 umol/kg, ip administered from day 3 to 6 after implantation measured on day 7 by MTT-based hollow-fiber test; assay type: functional
[34] = test system: MCF7; test: Growth inhibition of human MCF7 cells implanted intraperitoneally to NCr nu/nu mouse at 72.6 to 290.7 umol/kg, ip administered from day 3 to 6 after implantation measured on day 7 by MTT-based hollow-fiber test; assay type: functional
[35] = test system: Mus musculus; test: Toxicity in NCr nu/nu mouse subcutaneously implanted with human KB cells assessed as mortality at 290.7 umol/kg, ip administered on day 10, 13, 16, 20 of implantation; assay type: organism-based; details: in vivo
[36] = test system: Mus musculus; test: Toxicity in NCr nu/nu mouse subcutaneously implanted with human KB cells assessed as change in body weight at 72.6 umol/kg, ip administered on day 10, 13, 16, 20 of implantation; assay type: organism-based; details: in vivo
[37] = test system: Mus musculus; test: Toxicity in NCr nu/nu mouse subcutaneously implanted with human KB cells assessed as change in body weight at 290.7 umol/kg, ip administered on day 10, 13, 16, 20 of implantation; assay type: organism-based; details: in vivo
[38] = test system: KB; test: Growth inhibition of human KB cells implanted subcutaneously to NCr nu/nu mouse assessed as tumor size at 72.6 to 290.7 umol/kg, ip administered on day 10, 13, 16, 20 of implantation; assay type: functional, organism-based
[39] = test system: SW626; test: Growth inhibition of human SW626 cells implanted intraperitoneally to NCr nu/nu mouse at 72.6 to 290.7 umol/kg, ip administered from day 3 to 6 after implantation measured on day 7 by MTT-based hollow-fiber test; assay type: functional
[40] = test system: Mus musculus; test: Toxicity in tumor cell implanted NCr nu/nu mouse assessed as body weight change at 290.7 umol/kg, ip administered from day 3 to 6 after implantation measured on day 7; assay type: organism-based; details: in vivo
[41] = test system: Mus musculus; test: Toxicity in NCr nu/nu mouse subcutaneously implanted with human KB cells assessed as change in body weight at 145.3 umol/kg, ip administered on day 10, 13, 16, 20 of implantation; assay type: organism-based; details: in vivo
[42] = test system: KB; test: Growth inhibition of human KB cells implanted intraperitoneally to NCr nu/nu mouse at 72.6 to 290.7 umol/kg, ip administered from day 3 to 6 after implantation measured on day 7 by MTT-based hollow-fiber test; assay type: functional
[43] = test system: LNCaP; test: Growth inhibition of human LNCAP cells implanted intraperitoneally to NCr nu/nu mouse at 72.6 to 290.7 umol/kg, ip administered from day 3 to 6 after implantation measured on day 7 by MTT-based hollow-fiber test; assay type: functional
[44] = Inhibition of protein farnesyltransferase
[45] = test system: Mus musculus; test: Toxicity in NCr nu/nu mouse subcutaneously implanted with human KB cells assessed as body weight change at 553.1 umol/kg, ip administered from day 3 to 6 after implantation measured on day 7; assay type: organism-based; details: in vivo
[46] = test system: KB; test: Growth inhibition of human KB cells implanted subcutaneously to NCr nu/nu mouse at 553.1 umol/kg, ip administered from day 3 to 6 after implantation measured on day 7 by MTT-based hollow-fiber test; assay type: functional
[47] = test system: P388; test: Cytotoxicity against mouse P388 cells; assay type: functional, cell-based
[48] = test system: KB; test: Growth inhibition of human KB cells implanted intraperitoneally to NCr nu/nu mouse at 553.1 umol/kg, ip administered from day 3 to 6 after implantation measured on day 7 by MTT-based hollow-fiber test; assay type: functional

CC(O)c1cc2c(o1)C(=O)c1ccccc1C2=O (stereo not drawn)
Activity [1]: Toxic
inhibition (INH) [2]: 0%
IC50 [3]: 2.1 µM
IC50 [4]: 14.5 µM
IC50 [5]: 0.8 µM
IC50 [6]: 2.5 µM
IC50 [7]: 13.2 µM
inhibition (INH) [8]: 0%
IC50 [9]: 4.9 µM
Activity [10]: Toxic
IC50 [11]: 1.2 µM
IC50 [12]: 1.2 µM
Activity [13]: -0.4 g
IC50 [14]: 7.4 µM
IC50 [15]: 0.4 µM

C=C1C(=O)[C@@]23CC[C@@H]4[C@@]5(C)CCC[C@@]4(OC5=O)[C@@]2(C)CC[C@]1(OC)C3
inhibition (INH) [16]: 0%
Activity [17]: Dose-dependent effect
IC50 [3]: 6.4 µM
inhibition (INH) [18]: 15.5%
IC50 [4]: 1.2 µM
inhibition (INH) [19]: 0%
Activity [20]: 0.03 g
IC50 [5]: 2 µM
IC50 [6]: 0.9 µM
IC50 [7]: 3.5 µM
Activity [21]: Dose-dependent effect
inhibition (INH) [22]: 0%
Activity [23]: Non-toxic
Activity [24]: Non-toxic
inhibition (INH) [25]: 0%
IC50 [9]: 5.2 µM
inhibition (INH) [26]: 11.1%
Activity [27]: Dose-dependent effect
inhibition (INH) [28]: 5.7%
inhibition (INH) [29]: 0%
inhibition (INH) [30]: 16.3%
Activity [31]: 0.74 g
IC50 [11]: 0.6 µM
Activity [32]: Dose-dependent effect
IC50 [12]: 1.2 µM
inhibition (INH) [33]: 0%
inhibition (INH) [34]: 34.4%
Activity [35]: Non-toxic
Activity [36]: 7.9%
Activity [37]: 6.6%
Activity [38]: Active
IC50 [14]: 3.8 µM
inhibition (INH) [39]: 0%
Activity [40]: 0.85 g
IC50 [15]: 0.3 µM
Activity [41]: 7.6%
inhibition (INH) [42]: 21.6%
inhibition (INH) [43]: 50.6%

C=C1C(=O)O[C@@H]2C[C@]3(C)CC[C@]4(C)[C@H](CC[C@@H]5[C@@]6(C)CCC(=O)C(C)(C)[C@@H]6CC[C@]54C)[C@H]3[C@H]12 [OCHRACEOLIDE A]
IC50 [44]: 2.2 µM
Activity [45]: 0.5 g
IC50 [3]: 20.4 µM
inhibition in vivo at 553.1 µmol/kg [46]: 0%
IC50 [4]: 13.1 µM
IC50 [5]: 24.3 µM
IC50 [6]: 16.6 µM
IC50 [7]: 32.3 µM
IC50 [47]: 0.58 µM
IC50 [9]: > 44.2 µM
inhibition in vivo at 553.1 µmol/kg [48]: 0%
IC50 [11]: 35.4 µM
IC50 [12]: 14.8 µM
IC50 [14]: 19.2 µM
IC50 [15]: 3.5 µM
